Values joined by “and” are separate entries in the source; they are usually repeats but may differ in a detail not shown here. Identical values can stand only once.
Key:
[1] = system: human hepatitis C virus (HCV); set-up: method as in PMID 23911854; details: at 10 μM; cited from earlier work
CEM cells = system: CEM cells; set-up: method as in PMID 23911854; details: cited from earlier work
hepatitis B virus (HBV) = assay: Anti-HBV activity of compound 6 (unpublished data); format: cell-based; details: read-out: EC50 (HBV)
in vitro [2] = assay: in vitro
[3] = system: SARS-CoV-2 strain BavPat1; assay: SARS-CoV-2 assay in Vero E6 cells (CellTiter-Blue); details: 10 μM
HIV-1 LAI = assay: HIV assay in human PBM cells infected with HIV-1 LAI, RT quantification; format: cell-based; details: Human immunodeficiency virus 1, PBMC; 10 μM, PBM cells, HIV-1 LAI
Experimental: The assay was performed as described by Schinazi et al. with minor modifications. […] The supernatants were harvested, and the HIV-1 RT was quantified.

HBV [4] = assay: HBV assay in Huh7 cells transfected with pCI_HBVpg1820, intracapsid viral DNA by real-time PCR; format: cell-based, hepatitis B virus (HBV); details: for inhibition at 10 µM: Hepatitis B virus, Huh-7, 96 h
Experimental: In Huh7 cells: antiviral activity against HBV in cell culture was measured as previously described. Briefly, Huh7 cells were transfected with plasmid pCI_HBVpg1820 containing 1.1 unit of HBV genome under the control of a human cytomegalovirus (CMV) promoter. The drugs were stored at 1000× in DMSO at −20 °C. For each experiment, the drugs were diluted in DMEM cell culture medium (Thermo Fisher Scientific, Artenay, France) to a final concentration of 10 μM. All drugs were tested in triplicate in two independent experiments. After 4 days of culture, intracapsid viral DNA was quantified by duplex real-time PCR, using primers described elsewhere, on a LightCycler 480 II apparatus (Roche Diagnostics France, Meylan, France) using TaqMan Universal PCR Mastermix II without UNG (Thermo Fisher Scientific, Artenay, France). Cells were quantified using primers by real-time PCR, using primers HPRT1_F (5′-[…]) and HPRT1_R (5′-[…]), on a LightCycler 480 II apparatus (Roche) using a LightCycler® 480 SYBR Green I Master (Roche Diagnostics France, Meylan, France). Cycling reactions were performed with the following parameters: 5 min at 95 °C, followed by 45 cycles of 10 s at 95 °C, 15 s at 60 °C, 10 s at 72 °C. The inhibition of HBV replication (%) and cell culture viability (%) were quantified using the following formulas. Inhibition of HBV replication (%)=1− HBV DNA copy numberDrug/HBV DNA copy numberCell culture medium Cell viability (%)= HPRT1 DNA copy numberDrug/HPRT1 DNA copy numberCell culture medium

[5] = Cell culture viability in the Huh7 HBV assay (HPRT1 DNA copy number); details: human
in vitro [6] = format: cell-based; details: human; PBM cells; read-out: MTS Cytotoxicity (IC50, μM) PBM
Experimental: (§1) Assays were performed in human peripheral blood mononuclear (PBM) and human liver (HepG2) cells via MTS assay using the CellTiter 96® Non-Radioactive Cell Proliferation (Promega) kit as previously described^3. Cytotoxicity was expressed as the concentration of test compounds that inhibited cell proliferation by 50% (IC50) and calculated using the Chou and Talalay method.

HBV [7] = assay: HBV assay in HepAD38 cells, real-time PCR for HBV DNA in supernatant; format: cell-based; details: Hepatitis B virus, 168 h, 7 days
Experimental: In HepAD38 cells were seeded at 50,000 cells/well in collagen-coated 96-well plates. Test compounds or 2′,3′-didéoxy-3′-thiacytidin (3TC) (control) were added to HepAD38 cells to a final concentration of 10 μM.
Real-Time PCR for HBV DNA. The experiment lasted 7 days. On day 7, total DNA was purified from the supernatant using a commercially available kit (DNeasy 96 Blood & Tissue kit, Qiagen). The HBV DNA was amplified in a real-time PCR assay using a LightCycler 480 (Roche) as described elsewhere. All samples were tested in duplicate in two to three independent experiments. Analysis: The concentration of compound that inhibited HBV DNA replication by 50% (EC50) was determined by linear regression.

[8] = Cytotoxicity MTS assay in HepG2 cells; format: cell-based; details: human
Experimental: as §1

in vitro [9] = details: human
[10] = read-out: HBV % Inhibition Huh7, 10 μM, Huh7 cells, 4 days
[11] = 10 μM, Huh7 cells, 4 days, read-out: HBV % Inhibition Huh7

CCCc1ccc(-c2cn(C/C=C/CP(=O)(OCOC(=O)C(C)(C)C)OCOC(=O)C(C)(C)C)nn2)cc1 [Compound 5]
% of inhibition (HCV) [1]: 95.6% and 95% | CC50 (CEM cells): 55.3 µM

C/C(=C\CP(=O)(OCOC(=O)OC(C)C)OCOC(=O)OC(C)C)Cn1cnc2c(O)nc(N)nc21 [Compound 6, bis(POC)-(E)-2-methyl-but-2-enylguanine]
EC50 (hepatitis B virus (HBV)): 8.5 µM | CC50 (in vitro [2]): > 100 µM

C/C(=C\CP(=O)(OCOC(=O)OC(C)C)OCOC(=O)OC(C)C)Cn1cc(C(N)=O)nn1 [Compound 11j, [[(E)-4-(4-Carbamoyltriazol-1-yl)-3-methyl-but-2-enyl]-(isopropoxycarbonyloxymethoxy)phosphoryl]oxymethyl isopropyl carbonate]
SARS-CoV-2 % Inhibition Vero E6 [3]: <1% | inhibition at 10 µM (HIV-1 LAI): < 1% | HBV % Inhibition Huh7 (HBV [4]; 10 μM, Huh7 cells, 4 days): 40% | inhibition at 10 µM (HBV [4]; [10]): > 40% | viability at 4 days, 10 µM [5]: 100% | IC50 (in vitro [6]): 76.8 µM | inhibition at 10 µM (HBV [7]): 31.3% | IC50 [8]: > 100 µM

CCCCCCCC(=O)NCc1cn(C/C(C)=C/CP(=O)(OCOC(=O)OC(C)C)OCOC(=O)OC(C)C)nn1 [Compound 11k, [[(E)-4-(4-Octanoylaminomethyltriazol-1-yl)-3-methyl-but-2-enyl]-(isopropoxycarbonyloxymethoxy)phosphoryl]oxymethyl isopropyl carbonate]
SARS-CoV-2 % Inhibition Vero E6 [3]: 5% | inhibition at 10 µM (HIV-1 LAI): 42% | inhibition at 10 µM (HBV [4]; [11]): < 1% | viability at 4 days, 10 µM [5]: 100% | IC50 (in vitro [6]): 51.5 µM | inhibition at 10 µM (HBV [7]): 6.1% | IC50 [8]: 57.3 µM

C/C(=C\CP(=O)(OCOC(=O)OC(C)C)OCOC(=O)OC(C)C)Cn1cc(-c2ccc([N+](=O)[O-])cc2)nn1 [Compound 11l, [[(E)-4-(4-Nitrophenyltriazol-1-yl)-3-methyl-but-2-enyl]-(isopropoxycarbonyloxymethoxy)phosphoryl]oxymethyl isopropyl carbonate]
SARS-CoV-2 % Inhibition Vero E6 [3]: 10% | inhibition at 10 µM (HIV-1 LAI): 38.8% | HBV % Inhibition Huh7 (HBV [4]; 10 μM, Huh7 cells, 4 days): 40% | inhibition at 10 µM (HBV [4]; [10]): > 40% | anti-HBV activity in words (HBV [4]; compared to entecavir (Huh7) and lamivudine (HepAd38)): good activity | viability at 4 days, 10 µM [5]: 100% | IC50 (in vitro [6]): 23.5 µM | inhibition at 10 µM (HBV [7]): 42.6% | IC50 [8]: 85.3 µM

COC(=O)c1cn(C/C(C)=C/CP(=O)(OCOC(=O)OC(C)C)OCOC(=O)OC(C)C)nn1 [Compound 11n, Methyl-1-[(E)-4-[bis(isopropoxycarbonyloxymethoxy)phosphoryl]-2-methyl-but-2-enyl]triazole-4-carboxylate]
SARS-CoV-2 % Inhibition Vero E6 [3]: <1% | inhibition at 10 µM (HIV-1 LAI): < 1% | inhibition at 10 µM (HBV [4]; [11]): 28% | viability at 4 days, 10 µM [5]: 60% | IC50 (in vitro [6]): 40.9 µM | inhibition at 10 µM (HBV [7]): 3.9% | IC50 [8]: > 100 µM

CCOC(=O)c1cn(C/C(C)=C/CP(=O)(OCOC(=O)OC(C)C)OCOC(=O)OC(C)C)nn1 [Compound 11o, Ethyl-1-[(E)-4-[bis(isopropoxycarbonyloxymethoxy)phosphoryl]-2-methyl-but-2-enyl]triazole-4-carboxylate]
SARS-CoV-2 % Inhibition Vero E6 [3]: <1% | inhibition at 10 µM (HIV-1 LAI): 22.4% | inhibition at 10 µM (HBV [4]; [11]): < 1% | viability at 4 days, 10 µM [5]: 60% | IC50 (in vitro [6]): 67.5 µM | inhibition at 10 µM (HBV [7]): 41.2% | IC50 [8]: > 100 µM

CNC(=O)c1cn(C/C(C)=C/CP(=O)(OCOC(=O)OC(C)C)OCOC(=O)OC(C)C)nn1 [Compound 11p, [[(E)-4-(4-Methylcarbamoyltriazol-1-yl)-3-methyl-but-2-enyl]-(isopropoxycarbonyloxymethoxy)phosphoryl]oxymethyl isopropyl carbonate]
SARS-CoV-2 % Inhibition Vero E6 [3]: <1% | inhibition at 10 µM (HIV-1 LAI): 36.4% | inhibition at 10 µM (HBV [4]; [11]): 14% | viability at 4 days, 10 µM [5]: 54% | IC50 (in vitro [6]): 78.3 µM | inhibition at 10 µM (HBV [7]): < 1% | IC50 [8]: > 100 µM

CCNC(=O)c1cn(C/C(C)=C/CP(=O)(OCOC(=O)OC(C)C)OCOC(=O)OC(C)C)nn1 [Compound 11q, [[(E)-4-[4-(Ethylcarbamoyl)triazol-1-yl]-3-methyl-but-2-enyl]-(isopropoxycarbonyloxymethoxy)phosphoryl]oxymethyl isopropyl carbonate]
SARS-CoV-2 % Inhibition Vero E6 [3]: <1% | inhibition at 10 µM (HIV-1 LAI): 31.2% | inhibition at 10 µM (HBV [4]; [11]): < 1% | viability at 4 days, 10 µM [5]: 90% | IC50 (in vitro [6]): 80.6 µM | inhibition at 10 µM (HBV [7]): < 1% | IC50 [8]: > 100 µM

CCCCCCCCCCCCCCCCOCCCOP(=O)(C/C=C(\C)Cn1cc(-c2ccc(CCCCC)cc2)nn1)OCOC(=O)OC(C)C (stereo not drawn) [Compound 15c, [3-Hexadecyloxypropoxy-[(E)-3-methyl-4-[4-(4-pentylphenyl)triazol-1-yl]but-2-enyl]phosphoryl]oxymethyl isopropyl carbonate]
SARS-CoV-2 % Inhibition Vero E6 [3]: <1% | inhibition at 10 µM (HIV-1 LAI): 28.2% | inhibition at 10 µM (HBV [4]; [11]): 14% | viability at 4 days, 10 µM [5]: 47% | IC50 (in vitro [6]): 50.5 µM | inhibition at 10 µM (HBV [7]): 28.8% | IC50 [8]: > 100 µM

CCCCCCCCCCCCCCCCOCCCOP(=O)(C/C=C(\C)Cn1cc(C(N)=O)nn1)OCOC(=O)OC(C)C (stereo not drawn) [Compound 15j, [[(E)-4-(4-Carbamoyltriazol-1-yl)-3-methyl-but-2-enyl]-(3-hexadecyloxypropoxy)phosphoryl]oxymethyl isopropyl carbonate]
SARS-CoV-2 % Inhibition Vero E6 [3]: <1% | inhibition at 10 µM (HIV-1 LAI): 32.2% | inhibition at 10 µM (HBV [4]; [11]): 62% | viability at 4 days, 10 µM [5]: 74% | IC50 (in vitro [6]): 43.1 µM | inhibition at 10 µM (HBV [7]): < 1% | IC50 [8]: 66.4 µM

C=C1[C@H](CO)[C@@H](O)C[C@@H]1n1cnc2c(=O)[nH]c(N)nc21 [Entecavir, reference compound]
viability at 4 days, 10 µM (in vitro [9]): 96% | inhibition at 10 µM (HBV [4]; [11]): 92%
